This series in a line: gradient 5% acetonitrile 3 min, to 50% in 2 min, to 85% in 15 min, held 3 min, 100 µL/min. The conditions noted are these: column: Zorbax Extend-C18 2.1 x 50 mm; eluents: water / acetonitrile, 0.1% formic acid. In a few lines: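 Retention time was recorded from adduct peaks, which were picked computationally and each inspected manually. Pure standards ran in mixtures of ~100 molecules on HPLC coupled to a quadrupole time-of-flight mass spectrometer, in positive and negative ionization mode, through a Zorbax Extend-C18 column (2.1 × 50 mm, 1.8 μm) at 100 μL/min. Eluents were water and acetonitrile, each with 0.1% formic acid.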
`Cc1cc(NC(=O)CSc2nnc(NC(=O)c3snnc3C)s2)no1` had an RP-LC retention time of 666 s.

For the molecule `Cc1cccc2nnc(N3CCC(C(=O)Nc4ccc(Cl)cc4)CC3)n12`, the RP-LC retention time worked out at 656 s.

The molecule `Cc1cc(=O)n(Cc2ccc(F)cc2)c(N2CCSCC2)n1` showed an RP-LC retention time of 917 s.

In turn, `Cc1cccc(Cn2c(=O)n(CCNC(=O)C3CCC3)c3ncccc32)c1` gave an RP-LC retention time of 784 s.

Molecule `CCOC(=O)COc1cc(-c2ccccc2)nc2ccc(NC(=O)c3ccco3)cc12` displayed an RP-LC retention time of 743 s.

As to `COc1ccc2c(c1)C1(CCN(C(=O)C(C)C)C1)C(=O)N2C` (centres undefined), the RP-LC retention time was 701 s.

Take `COc1ccc(C(=O)N2CCN(c3cc(-c4cccs4)[nH]n3)CC2)cc1F`: the RP-LC retention time turned out to be 837 s.

Turning to `Cc1cc(Cl)ccc1NC(=O)c1cc2c(=O)n(CC(C)C)ccc2n1C`, the RP-LC retention time turned out to be 900 s.

Molecule `Cc1ccc(NC(=O)N2CCC(n3c(C(F)(F)F)nc4cccnc43)CC2)cc1` came in with an RP-LC retention time of 856 s.

`O=C(Nc1nnc(-c2ccc(Br)o2)o1)c1ccc(F)cc1F`: the RP-LC retention time amounted to 740 s.

Turning to `CCN1CCCn2cc(S(=O)(=O)Nc3cccc(Cl)c3)cc2C1=O`, the RP-LC retention time is 770 s.

In turn, `CCn1cnc(S(=O)(=O)N2CCC(C(=O)Nc3cccc4c3CCCC4)CC2)c1` displayed an RP-LC retention time of 792 s.

The molecule `Cc1ccc(NC(=O)C(C)Oc2ccc(F)cc2)cc1C` (centres undefined) gave an RP-LC retention time of 956 s.

As for `Cc1cccc2nnc(N3CCCN(C(=O)c4cccs4)CC3)n12`, the RP-LC retention time turned out to be 541 s.

In turn, `CS(=O)(=O)N1CCC(C(=O)Nc2nnc(-c3ccc(F)cc3)o2)CC1` came in with an RP-LC retention time of 636 s.

Molecule `CCC(C)NC(=O)N1CC(Oc2ccc(-c3nc(-c4ccccc4)no3)cc2)C1` (centres undefined) gave an RP-LC retention time of 712 s.

For `O=C(Nc1ccc(F)cc1F)c1ccc(N2C(=O)CCC2=O)cc1`, the RP-LC retention time was determined as 671 s.

For the molecule `CCOC(=O)c1c(C)oc2ncnc(NCC3CCN(Cc4ccc(F)cc4)CC3)c12`, the RP-LC retention time worked out at 698 s.

Molecule `CN(C)C(=O)c1ccc2c(c1)nc(CN(C)C(=O)Nc1cccc(Br)c1)n2C` had an RP-LC retention time of 642 s.

The molecule `CCc1ccccc1NS(=O)(=O)c1cc(-c2nc(C)cs2)sc1C` registered an RP-LC retention time of 1100 s.

As for `CN(C1CCc2nn(CC3CC3)c(=O)n2CC1)S(=O)(=O)c1ccccc1C(F)(F)F` (centres undefined), the RP-LC retention time was 831 s.

Molecule `O=C(CCn1c(=O)oc2ccccc21)N1CC(F)(F)C[C@H]1COc1ccccc1` showed an RP-LC retention time of 1000 s.

`CCOC(=O)c1cc(C2CC2)nc2c1c(=O)n(Cc1cccc(C(F)(F)F)c1)c(=O)n2C` yielded an RP-LC retention time of 1270 s.

In turn, `COC(=O)c1ccccc1S(=O)(=O)Nc1ccc2c(c1)CCC(=O)N2C` came in with an RP-LC retention time of 748 s.

With `Cc1ccccc1-c1noc(Cc2nnc(-c3ccc(F)cc3)o2)n1`, the RP-LC retention time came to 1040 s.

Turning to `O=C(CSc1ccc(-c2cccnc2)nn1)NCC1CCCO1` (centres undefined), the RP-LC retention time was 548 s.

For the molecule `CCc1noc(NC(C)=O)c1-c1ccc(OC)c(S(=O)(=O)Nc2ccc(F)c(F)c2)c1`, the RP-LC retention time stood at 792 s.

In the case of `Cc1ccc(NS(=O)(=O)c2c(C)nc3sc4cc(C)ccc4n3c2=O)cc1`, the RP-LC retention time turned out to be 1160 s.

In turn, `CCOC(=O)CNC(=O)N1CCN(Cc2nc3cccnc3n2-c2ccc(F)cc2)CC1` returned an RP-LC retention time of 602 s.

`Cc1sc(-c2noc(C3CC3)n2)cc1S(=O)(=O)N1CCC(C(=O)NC2CCCCC2)CC1` had an RP-LC retention time of 1020 s.

Consider `CCCNC(=O)c1cnn2c3c(cnc12)CCCCCC3`, for which the RP-LC retention time stood at 976 s.

`Cn1c(CNC(=O)C2CCC2)nc2c1CN(C(=O)Nc1ccc(F)cc1)CC2` gave an RP-LC retention time of 603 s.

In the case of `Cc1nc(N2CCOCC2)c2c(C)c(C(=O)Nc3cccc(Cl)c3C)sc2n1`, the RP-LC retention time was determined as 885 s.

`CCC(CC)NCCOC(=O)c1ccc([N+](=O)[O-])cc1` had an RP-LC retention time of 705 s.

In turn, `Cc1ccc(NC(=O)NC2CCN(c3ccc(C)cc3)C2=O)cc1` (centres undefined) gave an RP-LC retention time of 853 s.

The molecule `O=C(c1cc(F)cc(F)c1)N1CCCC(c2ccnc(-c3cccc(F)c3)n2)C1` (centres undefined) came in with an RP-LC retention time of 1120 s.

As for `Cn1nc(C(=O)N2CC(n3cc(C(=O)NCC4CC4)nn3)C2)c2ccccc21`, the RP-LC retention time came to 734 s.

`Cc1cc2c(cc1NC(=O)CCc1ccccc1)n(C)c(=O)n2C` came in with an RP-LC retention time of 715 s.

The molecule `Cc1ccccc1CNC(=O)C1c2ccccc2CC(=O)N1C(C)C` (centres undefined) gave an RP-LC retention time of 827 s.

As to `CC(C)(C)c1ccc2oc(CN3CCN(C(=O)NCc4ccccc4)CC3)nc2c1`, the RP-LC retention time turned out to be 842 s.

`CC(=O)c1ccc(NC(=O)Cn2ccc3ccc(-c4nnc(C)o4)cc32)cc1` displayed an RP-LC retention time of 743 s.

In the case of `CN(C)C(CNS(=O)(=O)/C=C/c1ccccc1)c1cn(C)c2ccccc12` (centres undefined), the RP-LC retention time came to 602 s.

On to `CCOC(=O)C1CCCN(C(=O)C2CCN(S(=O)(=O)c3ccc4c(c3)sc(=O)n4C)CC2)C1` (centres undefined), for which the RP-LC retention time came out at 825 s.

`CC(=O)N1CCc2cc(N3CC(C(=O)Nc4ccc(F)cc4C)CC3=O)ccc21` (centres undefined) came in with an RP-LC retention time of 690 s.

Turning to `COCCN1CN=C(Nc2nc(C)c3cccc(C)c3n2)NC1`, the RP-LC retention time was found to be 644 s.

Turning to `O=C(c1cnccn1)N1CCCC1c1nc(-c2ccc(F)cc2F)no1` (centres undefined), the RP-LC retention time is 782 s.

Molecule `O=S(=O)(c1cccnc1)N1CC(c2nc(CCOCc3ccccc3)no2)C1` came in with an RP-LC retention time of 835 s.

Take `CC(C)N1CCN(Cc2ccc(C(=O)NCCC3=CCCCC3)cc2)C(=O)C1=O`: the RP-LC retention time came to 760 s.

`COc1ccc(-n2ccc(=O)c(-c3nc(-c4cccc(OC)c4OC)no3)n2)cc1` came in with an RP-LC retention time of 824 s.

In turn, `COc1cc2nc(N3CCC(N4CCCCC4)CC3)nc(NC3CCCCCC3)c2cc1OC` gave an RP-LC retention time of 662 s.

For the molecule `CN(C)C(=O)c1cc2c(s1)CCC(C(=O)NCc1ccccc1)C2` (centres undefined), the RP-LC retention time is 628 s.

In turn, `O=C(Nc1ccc(-n2cnc(C(=O)N3CCc4ccccc4C3)c2)nc1)C1CC1` returned an RP-LC retention time of 733 s.

As for `Cc1c(C(=O)N2CCN(C(C)C)CC2)cnn1-c1cc(-c2nc(C(C)(C)C)no2)ccn1`, the RP-LC retention time was determined as 685 s.

The molecule `O=C(CN1C(=O)CCc2cc(Br)ccc21)Nc1ccccc1` had an RP-LC retention time of 889 s.

The molecule `COC(=O)CSc1nnc2c(S(=O)(=O)N3CCN(c4ccc(F)cc4)CC3)cccn12` showed an RP-LC retention time of 825 s.

`Cc1cccc(NC(=O)Cn2nc(N3CCCC3)c3ccccc3c2=O)c1C`: the RP-LC retention time turned out to be 927 s.

As to `Cc1ccc(S(=O)(=O)N2CCOCC2)cc1-c1nnc(-c2ccc(Cl)cc2)o1`, the RP-LC retention time was 1030 s.

Take `CCCCN1C(=O)CN(S(=O)(=O)c2ccccc2)CC1(C)C(=O)NCc1ccc(C)cc1` (centres undefined): the RP-LC retention time is 805 s.

The molecule `O=C(NCc1ccco1)N1CCN(c2nc3ccccc3n(Cc3ccccc3)c2=O)CC1` registered an RP-LC retention time of 967 s.

The molecule `COc1ccc(C(=O)N(CCS(=O)(=O)N2CCNCC2)CC2CCCO2)cc1` (centres undefined) yielded an RP-LC retention time of 609 s.

With `CC(=O)c1ccc(S(=O)(=O)N2CCc3nc[nH]c3C2)cc1`, the RP-LC retention time stood at 585 s.

`CCOC(=O)c1ccc(NC(=O)c2ccc(S(=O)(=O)N(C)C)cc2)cc1` had an RP-LC retention time of 833 s.

In turn, `CN(C)c1cccc(C(=O)NCC2CCN(C(=O)Oc3ccccc3)CC2)c1` yielded an RP-LC retention time of 723 s.

As for `O=C(NCc1ccccc1C(F)(F)F)C1CCN(c2cncnc2N2CCOCC2)CC1`, the RP-LC retention time is 644 s.

As to `c1ccc(CN2CCN(c3ncccc3-c3nc(-c4ccccc4)no3)CC2)cc1`, the RP-LC retention time was determined as 769 s.

`O=S(=O)(c1cccnc1)N1CCC(OC2CCN(Cc3ccccc3)CC2)CC1`: the RP-LC retention time was 637 s.

Take `CC1CCN(S(=O)(=O)c2ccc3nc(N4CCN(c5ccccn5)CC4)ccc3c2)CC1`: the RP-LC retention time worked out at 691 s.

As for `O=C(NCc1ccccc1F)c1ccc2c(c1)nc1n2CCN(C2CCCCC2)C1=O`, the RP-LC retention time is 788 s.

`COc1cc(Cl)c(NC(=O)C2CCN(S(=O)(=O)c3cn(C(C)C)cn3)CC2)c(OC)c1` came in with an RP-LC retention time of 797 s.

`COc1cc(-c2noc(Cc3nnc(-c4cc(F)cc(F)c4)o3)n2)cc(OC)c1OC` came in with an RP-LC retention time of 968 s.

`Cc1ccc(C2=NC3(CCN(C(=O)c4ccc5c(c4)OCO5)CC3)NC2=O)cc1C` returned an RP-LC retention time of 831 s.

Regarding `CN(C)C[C@@H]1CN(S(C)(=O)=O)C[C@H]1NC(=O)c1cccs1`, the RP-LC retention time was found to be 569 s.

For the molecule `CCc1nc(OCC(=O)N(C)c2ccccc2)c2ccccc2n1`, the RP-LC retention time turned out to be 756 s.

`CC(C)N1CCn2c(nc3cc(C(=O)NCc4ccccc4C(F)(F)F)ccc32)C1=O` showed an RP-LC retention time of 768 s.

For the molecule `COC(=O)c1ccc(C2CC(=O)NC3=C2C(=O)C(C(=O)OC)C(C)C3)cc1` (centres undefined), the RP-LC retention time worked out at 719 s.

Turning to `O=C1COc2ccc(Cl)cc2N1Cc1nc(-c2ccc(-c3csc(C4CC4)n3)cc2)no1`, the RP-LC retention time was determined as 1310 s.

As to `Cc1scc(CN2CCN(c3ccccn3)CC2)c1C`, the RP-LC retention time came out at 578 s.

In the case of `COc1cccc(-c2csc(-c3nnn(-c4cccc(Cl)c4)c3N)n2)c1`, the RP-LC retention time was 1170 s.

For the molecule `CC(C)[C@H](NC(=O)CNC(=O)OC(C)(C)C)C(=O)N[C@H](C=O)C(C)C`, the RP-LC retention time was determined as 749 s.

The values above are taken from the METLIN SMRT retention time set (Domingo-Almenara et al. 2019).
